Experimental data reported in the NIST ThermoML archive (doi:10.1021/je049959i).
Numbers after ± are expanded uncertainties. One block for each compound: values may come before it.

Settings: Liquid, Closed cell (Static) method

SMILES: C/C=C/C [(E)-2-butene]
vapor or sublimation pressure (332.05 K): 606.54 ± 2.2 kPa

SMILES: CC(C)C [2-methylpropane]
vapor or sublimation pressure (318.59 K): 610.84 ± 2.1 kPa

SMILES: C=C(C)C [2-methylpropene]
vapor or sublimation pressure (323.07 K): 607.94 ± 2.1 kPa

SMILES: C/C=C\C [(Z)-2-butene]
vapor or sublimation pressure (331.92 K): 561.34 ± 2.1 kPa

SMILES: C=CCC [1-butene]
vapor or sublimation pressure (323.27 K): 596.14 ± 2.1 kPa

The remaining lines, values ahead:

vapor or sublimation pressure (330.16 K): 592.44 ± 2.6 kPa
SMILES: CCCC [butane]

vapor or sublimation pressure (318.58 K): 9.47 ± 0.17 kPa
vapor or sublimation pressure (323.07 K): 12.07 ± 0.18 kPa
vapor or sublimation pressure (323.26 K): 12.27 ± 0.18 kPa
vapor or sublimation pressure (330.16 K): 17.57 ± 0.19 kPa
vapor or sublimation pressure (331.92 K): 19.07 ± 0.18 kPa
vapor or sublimation pressure (332.05 K): 19.17 ± 0.18 kPa
SMILES: CCCO [propan-1-ol]
